The conditions of the data set: 101.33 kPa, Liquid, Vibrating tube method.

SMILES strings stand for the structures. Numbers after ± are expanded uncertainties.

Regarding `Cn1cc[n+](CCO)c1.O=S(=O)([N-]S(=O)(=O)C(F)(F)F)C(F)(F)F`, the mass density (in general, the mass of a sample divided by its volume) is 1589.4 ± 2.3 kg/m3 (303.15 K); 1584.2 ± 2.3 kg/m3 (308.15 K); 1578.9 ± 2.3 kg/m3 (313.15 K); 1574.2 ± 2.3 kg/m3 (318.15 K); 1568.7 ± 2.3 kg/m3 (323.15 K); 1563.7 ± 2.3 kg/m3 (328.15 K). Further, the mass density is 1558.7 ± 2.3 kg/m3 (333.15 K); 1553.7 ± 2.2 kg/m3 (338.15 K); 1548.8 ± 2.2 kg/m3 (343.15 K); 1544 ± 2.2 kg/m3 (348.15 K); 1538.6 ± 2.2 kg/m3 (353.15 K).

For `Cn1cc[n+](CCO)c1.F[P-](F)(F)(F)(F)F` [3-(2-hydroxyethyl)-1-methylimidazolium hexafluorophosphate], the mass density (303.15 K) is given as 1555.6 ± 2.2 kg/m3; the mass density (308.15 K) stood at 1550.8 ± 2.2 kg/m3; the mass density (313.15 K) amounted to 1546 ± 2.2 kg/m3; the mass density (318.15 K) was determined as 1541.1 ± 2.2 kg/m3; the mass density (323.15 K) is reported as 1536.4 ± 2.2 kg/m3; the mass density (328.15 K) was determined as 1531.8 ± 2.2 kg/m3. Also, the mass density amounted to 1527.2 ± 2.2 kg/m3 (333.15 K); 1522.6 ± 2.2 kg/m3 (338.15 K); 1518.2 ± 2.2 kg/m3 (343.15 K); 1513.6 ± 2.2 kg/m3 (348.15 K); 1508.7 ± 2.1 kg/m3 (353.15 K).

On to `Cn1cc[n+](CCO)c1.O=S(=O)([O-])C(F)(F)F`, for which the mass density by setting is: (303.15 K) 1444 ± 2 kg/m3; (313.15 K) 1436.1 ± 2 kg/m3; (323.15 K) 1428 ± 2 kg/m3; (333.15 K) 1420.5 ± 1.9 kg/m3; (343.15 K) 1410.8 ± 1.9 kg/m3; (353.15 K) 1400.5 ± 1.9 kg/m3.

For the origin of these results see the NIST ThermoML archive (doi:10.1016/j.fluid.2010.08.027).
